For 7 molecules, activity coefficient results are on record in the NIST ThermoML archive (doi:10.1021/je2013878).

This data set is described as follows: activity coefficient (dimensionless); of the first substance listed, at infinite dilution; xn = mol fraction of the nth substance listed. The following applies: 313.15 K; 101 kPa; Liquid; Chromatography; x1 = 0.

Numbers after ± are expanded uncertainties.

Consider `C=CC(O)CCCCC` (configuration not stated) [1-octen-3-ol] + O, for which the activity coefficient was 2160 ± 230.

For the molecule `C=CC(O)CC` (configuration not stated) [1-penten-3-ol] + O, the activity coefficient was 49 ± 5.

Consider `CCC(=O)C(C)=O` [2,3-pentanedione] + O, for which the activity coefficient is 160 ± 17.

As for `CC(C)CC=O` [3-methylbutanal] + O, the activity coefficient stood at 179 ± 19.

Turning to `O=Cc1ccccc1` [benzaldehyde] + O, the activity coefficient stood at 570 ± 60.

Regarding `CCOC(C)=O` [ethyl acetate] + O, the activity coefficient stood at 71 ± 7.

As for `CCCCCC=O` [hexanal] + O, the activity coefficient was 601 ± 63.
